Patent US10550124B2, “Atropisomerism for increased kinase inhibitor selectivity” (SAN DIEGO STATE UNIVERSITY RESEARCH FOUNDATION, priority 2015, dated 2020)
Values joined by “and” are separate entries in the source; they are usually repeats but may differ in a detail not shown here. Equal values may be shown once.

Columns and labels:
Type in all cases: biochemical
Alk = Alk (Homo sapiens, UniProt Q9UM73); experiment: Z′-LYTE kinase inhibition assay, Alk; settings: average of 2 runs
Excerpt: (§1) All samples were sent out to Life Technologies to obtain kinase inhibition data. A brief description of the assays and analyses are included below.
(§2) Assay Theory (SelectScreen® Kinase Profiling Services (Life Technologies, Madison, Wis. USA). The Z′-LYTE® biochemical assay employs a fluorescence-based, coupled-enzyme format and is based on the differential sensitivity of phosphorylated and non-phosphorylated peptides to proteolytic cleavage. The peptide substrate is labeled with two fluorophores one at each end—that make up a FRET pair.
(§3) In the primary reaction, the kinase transfers the gamma-phosphate of ATP to a single tyrosine, serine or threonine residue in a synthetic FRET-peptide. In the secondary reaction, a site-specific protease recognizes and cleaves non-phosphorylated FRET-peptides.
(§4) Phosphorylation of FRET-peptides suppresses cleavage by the Development Reagent. Cleavage disrupts FRET between the donor (i.e., coumarin) and acceptor (i.e., fluorescein) fluorophores on the FRET-peptide, whereas uncleaved, phosphorylated FRET-peptides maintain FRET. A ratiometric method, which calculates the ratio (the Emission Ratio) of donor emission to acceptor emission after excitation of the donor fluorophore at 400 nm, is used to quantitate reaction progress, as shown in the equation below: […]
(§5) A significant benefit of this ratiometric method for quantitating reaction progress is the elimination of well-to-well variations in FRET-peptide concentration and signal intensities. As a result, the assay yields very high Z′-factor values (>0.7) at a low percent phosphorylation. Both cleaved and uncleaved FRET-peptides contribute to the fluorescence signals and therefore to the Emission Ratio. The extent of phosphorylation of the FRET-peptide can be calculated from the Emission Ratio. The Emission Ratio will remain low if the FRET-peptide is phosphorylated (i.e., no kinase inhibition) and will he high if the FRET-peptide is non-phosphorylated (i.e., kinase inhibition).

EGFR = EGFR (Homo sapiens, UniProt P00533); experiment: Z′-LYTE kinase inhibition assay, EGFR
Excerpt: as §1, §2, §3, §4, §5

Fgr = Fgr (Homo sapiens, UniProt P09769); experiment: Z′-LYTE kinase inhibition assay, Fgr; settings: average of 2 runs
Excerpt: as §1, §2, §3, §4, §5

Ret = Ret (Homo sapiens, UniProt P07949); experiment: Z′-LYTE kinase inhibition assay, Ret
Excerpt: as §1, §2, §3, §4, §5

Lyn = Lyn (Homo sapiens, UniProt P07948); experiment: Z′-LYTE kinase inhibition assay, Lyn; settings: average of 2 runs
Excerpt: as §1, §2, §3, §4, §5

Src kinase = Src kinase (Homo sapiens, UniProt P12931); experiment: Z′-LYTE kinase inhibition assay, Src
Excerpt: Based on the observed stereochemical stabilities, we chose 1f, 2e, and 2f for further study and obtained inhibition data against Src kinase from Life Technologies' Z′-LYTE™ kinase assay (Scheme 3).
as §1, §2, §3, §4, §5

pdgfr-b = pdgfr-b (Homo sapiens, UniProt P09619); experiment: Z′-LYTE kinase inhibition assay, pdgfr-b; settings: average of 2 runs
Excerpt: as §1, §2, §3, §4, §5

Abl = Abl (Homo sapiens, UniProt P00519); experiment: Z′-LYTE kinase inhibition assay, Abl
Excerpt: as §1, §2, §3, §4, §5

Fyn = Fyn (Homo sapiens, UniProt P06241); experiment: Z′-LYTE kinase inhibition assay, Fyn; settings: average of 2 runs
Excerpt: as §1, §2, §3, §4, §5

Lck = Lck (Homo sapiens, UniProt P06239); experiment: Z′-LYTE kinase inhibition assay, Lck; settings: average of 2 runs
Excerpt: as §1, §2, §3, §4, §5

Blk = Blk (Homo sapiens, UniProt P51451); experiment: Z′-LYTE kinase inhibition assay, Blk; settings: average of 2 runs
Excerpt: as §1, §2, §3, §4, §5

BTK = BTK (Homo sapiens, UniProt Q06187); experiment: Z′-LYTE kinase inhibition assay, BTK; settings: average of 2 runs
Excerpt: as §1, §2, §3, §4, §5

Hck = Hck (Homo sapiens, UniProt P08631); experiment: Z′-LYTE kinase inhibition assay, Hck; settings: average of 2 runs
Excerpt: as §1, §2, §3, §4, §5

CSK = CSK (Homo sapiens, UniProt P41240); experiment: Z′-LYTE kinase inhibition assay, CSK; settings: average of 2 runs
Excerpt: as §1, §2, §3, §4, §5

pdgfr-a = pdgfr-a (Homo sapiens, UniProt P16234); experiment: Z′-LYTE kinase inhibition assay, pdgfr-a; settings: average of 2 runs
Excerpt: as §1, §2, §3, §4, §5

Yes = Yes (Homo sapiens, UniProt P07947); experiment: Z′-LYTE kinase inhibition assay, Yes
Excerpt: as §1, §2, §3, §4, §5

[1] = system: panel of 18 tyrosine kinases; experiment: Kinase inhibitor profiling across a panel of tyrosine kinases (selectivity); settings: for S(40%): number of kinases inhibited greater than 40% divided by number of kinases tested (including Src)
Description: In order to probe the effect of atropisomeric conformation on kinase selectivity we subjected 1f, 2e, and 2f to kinase inhibitor profiling across a panel of tyrosine kinases at 1000 nM and 5000 nM (data for 2e shown in Scheme 4 below).
To analyze each analog's selectivity across the panel we turned to selectivity scores (Davis et al., Nat. Biotechnol. 2011, 29, 1046-51), simply the number of kinases inhibited above a certain threshold divided by the number of kinases evaluated. […] For example at 1000 nM 2e-(R) yielded an S(40%) of 0.11 while 2e-(S) gave an S(40%) of 0.16. […] Differences in selectivity between 2e-(R) and 2e-(S) at 5000 nM (4.5 times the IC50 of 2e-(S) toward Src) and for 5 at 1000 nM (6.25 times the IC50 of 5 toward Src) can be viewed graphically across tyrosine kinases (FIG. 3). Importantly, similar trends were also observed across each of the atropisomeric series tested.
as §1, §2, §3, §4, §5

Kit = Kit (Homo sapiens, UniProt P10721); experiment: Z′-LYTE kinase inhibition assay, Kit; settings: average of 2 runs
Excerpt: as §1, §2, §3, §4, §5

Her-2 = Her-2 (Homo sapiens, UniProt P04626); experiment: Z′-LYTE kinase inhibition assay, Her-2; settings: average of 2 runs
Excerpt: as §1, §2, §3, §4, §5

EGFR, sequence (P00533 25-1210): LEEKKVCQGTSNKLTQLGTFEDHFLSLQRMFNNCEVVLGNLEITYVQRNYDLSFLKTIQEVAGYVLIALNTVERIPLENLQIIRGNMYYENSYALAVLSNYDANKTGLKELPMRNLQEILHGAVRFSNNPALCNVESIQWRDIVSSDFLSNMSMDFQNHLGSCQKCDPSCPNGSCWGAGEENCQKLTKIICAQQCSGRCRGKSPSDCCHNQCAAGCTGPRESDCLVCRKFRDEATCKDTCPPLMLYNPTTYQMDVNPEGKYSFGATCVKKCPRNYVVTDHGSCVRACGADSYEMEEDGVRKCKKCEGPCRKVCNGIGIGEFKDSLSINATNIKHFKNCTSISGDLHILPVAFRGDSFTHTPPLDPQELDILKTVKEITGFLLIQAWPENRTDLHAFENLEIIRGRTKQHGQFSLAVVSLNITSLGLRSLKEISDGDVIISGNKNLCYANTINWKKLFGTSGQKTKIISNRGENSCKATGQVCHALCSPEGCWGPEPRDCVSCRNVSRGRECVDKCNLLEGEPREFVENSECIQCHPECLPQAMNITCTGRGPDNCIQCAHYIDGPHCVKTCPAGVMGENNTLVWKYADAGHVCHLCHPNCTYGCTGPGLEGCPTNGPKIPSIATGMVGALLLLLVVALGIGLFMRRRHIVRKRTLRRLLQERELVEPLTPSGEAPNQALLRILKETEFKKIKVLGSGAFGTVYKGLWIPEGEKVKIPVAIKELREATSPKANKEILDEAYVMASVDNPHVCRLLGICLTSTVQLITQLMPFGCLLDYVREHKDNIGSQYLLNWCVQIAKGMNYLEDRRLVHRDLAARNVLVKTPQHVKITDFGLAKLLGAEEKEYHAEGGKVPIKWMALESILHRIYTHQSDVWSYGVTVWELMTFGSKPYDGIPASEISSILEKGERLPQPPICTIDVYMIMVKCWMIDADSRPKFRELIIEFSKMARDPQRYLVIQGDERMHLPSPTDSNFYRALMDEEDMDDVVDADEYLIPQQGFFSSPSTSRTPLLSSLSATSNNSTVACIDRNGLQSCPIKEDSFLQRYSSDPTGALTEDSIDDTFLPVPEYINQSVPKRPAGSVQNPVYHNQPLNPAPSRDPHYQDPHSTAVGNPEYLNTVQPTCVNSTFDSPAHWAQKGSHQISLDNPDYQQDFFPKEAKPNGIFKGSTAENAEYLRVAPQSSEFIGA
Ret, sequence (P07949 29-1114): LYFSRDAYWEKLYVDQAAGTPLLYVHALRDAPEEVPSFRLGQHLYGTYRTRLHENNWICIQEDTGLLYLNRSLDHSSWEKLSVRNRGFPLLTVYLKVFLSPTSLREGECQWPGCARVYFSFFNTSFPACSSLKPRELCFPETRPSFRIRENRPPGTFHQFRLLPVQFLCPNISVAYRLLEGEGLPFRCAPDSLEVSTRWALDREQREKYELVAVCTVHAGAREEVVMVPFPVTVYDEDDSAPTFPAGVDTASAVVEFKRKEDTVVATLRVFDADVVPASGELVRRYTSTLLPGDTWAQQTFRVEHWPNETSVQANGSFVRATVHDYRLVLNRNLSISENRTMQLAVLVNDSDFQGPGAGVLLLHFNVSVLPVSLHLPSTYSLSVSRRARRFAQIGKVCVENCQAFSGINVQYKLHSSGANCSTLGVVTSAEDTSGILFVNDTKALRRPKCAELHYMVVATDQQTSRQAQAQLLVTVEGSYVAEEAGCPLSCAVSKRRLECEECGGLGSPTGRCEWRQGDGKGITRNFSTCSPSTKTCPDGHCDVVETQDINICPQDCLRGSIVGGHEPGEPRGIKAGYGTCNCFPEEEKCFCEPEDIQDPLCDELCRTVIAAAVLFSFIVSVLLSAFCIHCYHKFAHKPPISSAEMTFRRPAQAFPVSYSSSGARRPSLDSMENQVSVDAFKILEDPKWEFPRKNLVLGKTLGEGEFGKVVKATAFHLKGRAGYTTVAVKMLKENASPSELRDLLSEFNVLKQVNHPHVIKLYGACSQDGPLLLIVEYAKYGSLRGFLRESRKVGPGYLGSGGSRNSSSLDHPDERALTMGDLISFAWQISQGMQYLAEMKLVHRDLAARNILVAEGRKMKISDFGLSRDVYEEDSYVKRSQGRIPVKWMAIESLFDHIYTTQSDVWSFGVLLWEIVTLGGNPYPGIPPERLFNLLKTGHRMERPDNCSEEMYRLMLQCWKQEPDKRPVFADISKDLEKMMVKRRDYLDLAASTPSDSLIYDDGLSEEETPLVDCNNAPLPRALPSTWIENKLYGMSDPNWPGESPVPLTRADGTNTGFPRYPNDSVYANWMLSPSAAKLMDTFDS
Yes, sequence (P07947 whole entry): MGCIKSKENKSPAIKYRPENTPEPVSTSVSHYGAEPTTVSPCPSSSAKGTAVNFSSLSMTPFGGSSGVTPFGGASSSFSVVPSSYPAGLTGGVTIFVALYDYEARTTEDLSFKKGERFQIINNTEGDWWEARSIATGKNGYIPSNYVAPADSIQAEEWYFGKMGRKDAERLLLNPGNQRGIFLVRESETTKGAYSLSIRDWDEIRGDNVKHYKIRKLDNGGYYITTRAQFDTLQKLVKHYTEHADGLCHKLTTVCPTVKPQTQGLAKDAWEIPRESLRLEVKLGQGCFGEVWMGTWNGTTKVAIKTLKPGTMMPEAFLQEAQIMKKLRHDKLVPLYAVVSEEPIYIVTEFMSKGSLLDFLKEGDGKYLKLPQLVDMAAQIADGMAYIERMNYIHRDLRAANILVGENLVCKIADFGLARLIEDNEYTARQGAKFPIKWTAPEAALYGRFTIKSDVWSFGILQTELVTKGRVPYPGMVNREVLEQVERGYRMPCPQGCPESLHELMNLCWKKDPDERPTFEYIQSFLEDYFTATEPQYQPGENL
Abl, sequence (P00519 whole entry): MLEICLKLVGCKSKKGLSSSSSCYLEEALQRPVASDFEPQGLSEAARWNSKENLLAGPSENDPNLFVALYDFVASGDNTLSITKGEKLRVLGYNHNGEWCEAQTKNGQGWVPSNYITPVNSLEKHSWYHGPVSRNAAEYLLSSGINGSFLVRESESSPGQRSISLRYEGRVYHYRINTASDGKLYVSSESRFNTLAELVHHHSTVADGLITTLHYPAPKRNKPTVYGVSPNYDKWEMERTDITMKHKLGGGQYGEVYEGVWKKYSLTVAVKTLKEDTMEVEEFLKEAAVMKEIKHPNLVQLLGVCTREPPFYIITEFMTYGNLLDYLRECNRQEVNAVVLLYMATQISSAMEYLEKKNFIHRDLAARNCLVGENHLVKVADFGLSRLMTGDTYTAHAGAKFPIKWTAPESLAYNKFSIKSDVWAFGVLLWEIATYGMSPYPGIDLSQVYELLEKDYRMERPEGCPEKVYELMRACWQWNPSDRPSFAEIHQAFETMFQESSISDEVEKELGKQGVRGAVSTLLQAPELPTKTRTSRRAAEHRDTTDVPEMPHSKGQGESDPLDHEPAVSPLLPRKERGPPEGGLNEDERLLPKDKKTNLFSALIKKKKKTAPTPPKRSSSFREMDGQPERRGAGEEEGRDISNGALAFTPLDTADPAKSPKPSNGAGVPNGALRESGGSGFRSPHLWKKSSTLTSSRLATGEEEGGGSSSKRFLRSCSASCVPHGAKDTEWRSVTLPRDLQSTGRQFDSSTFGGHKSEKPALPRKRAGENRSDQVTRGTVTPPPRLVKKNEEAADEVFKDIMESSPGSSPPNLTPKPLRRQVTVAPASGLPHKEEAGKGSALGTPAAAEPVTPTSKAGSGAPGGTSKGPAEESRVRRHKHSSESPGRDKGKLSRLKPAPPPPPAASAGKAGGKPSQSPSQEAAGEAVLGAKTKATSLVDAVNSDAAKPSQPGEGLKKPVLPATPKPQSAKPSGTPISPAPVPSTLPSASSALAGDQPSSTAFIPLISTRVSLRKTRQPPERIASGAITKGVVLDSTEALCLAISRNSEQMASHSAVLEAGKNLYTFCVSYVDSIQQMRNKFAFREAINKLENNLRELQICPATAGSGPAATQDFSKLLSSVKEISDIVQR
Fyn, sequence (P06241 whole entry): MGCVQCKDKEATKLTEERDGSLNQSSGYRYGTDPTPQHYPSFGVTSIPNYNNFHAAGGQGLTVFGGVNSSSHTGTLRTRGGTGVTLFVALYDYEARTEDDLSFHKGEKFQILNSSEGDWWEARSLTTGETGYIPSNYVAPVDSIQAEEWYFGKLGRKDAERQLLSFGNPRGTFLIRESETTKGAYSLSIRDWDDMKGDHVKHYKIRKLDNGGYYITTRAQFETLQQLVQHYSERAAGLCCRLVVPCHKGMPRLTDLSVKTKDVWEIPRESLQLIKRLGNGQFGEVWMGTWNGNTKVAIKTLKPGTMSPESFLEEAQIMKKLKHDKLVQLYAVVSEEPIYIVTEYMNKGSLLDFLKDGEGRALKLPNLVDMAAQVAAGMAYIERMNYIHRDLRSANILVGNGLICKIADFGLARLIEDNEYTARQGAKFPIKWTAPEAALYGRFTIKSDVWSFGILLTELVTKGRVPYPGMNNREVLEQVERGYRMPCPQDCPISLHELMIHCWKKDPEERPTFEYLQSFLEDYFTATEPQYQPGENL
Src kinase, sequence (P12931 whole entry): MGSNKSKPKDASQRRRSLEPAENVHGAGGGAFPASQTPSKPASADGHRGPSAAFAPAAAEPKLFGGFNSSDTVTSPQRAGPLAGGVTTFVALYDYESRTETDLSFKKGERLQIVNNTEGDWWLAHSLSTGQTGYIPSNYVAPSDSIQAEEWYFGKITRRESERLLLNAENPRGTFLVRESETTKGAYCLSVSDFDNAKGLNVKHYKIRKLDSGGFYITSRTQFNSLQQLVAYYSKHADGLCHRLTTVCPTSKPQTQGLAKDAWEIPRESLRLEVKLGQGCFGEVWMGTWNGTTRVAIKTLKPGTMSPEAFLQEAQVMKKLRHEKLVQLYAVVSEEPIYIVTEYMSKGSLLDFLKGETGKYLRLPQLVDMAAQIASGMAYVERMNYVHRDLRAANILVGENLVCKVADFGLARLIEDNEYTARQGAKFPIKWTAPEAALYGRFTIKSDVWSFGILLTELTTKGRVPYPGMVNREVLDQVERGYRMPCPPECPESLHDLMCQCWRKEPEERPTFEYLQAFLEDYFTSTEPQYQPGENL

inhibition at 0.2 µM (Alk; 200 nM): 11%
inhibition at 1 µM (Alk; 1000 nM): 23%
IC50 of Kinase/IC50 of Yes (EGFR; EGFR relative to Yes): 7 and 6.96
inhibition at 0.2 µM (EGFR; EGFR, 200 nM, average of 2 runs): 28%
inhibition at 1 µM (EGFR; EGFR, 1000 nM, average of 2 runs): 62%
IC50 (EGFR; EGFR, error is standard deviation): 641 nM
inhibition at 0.2 µM (Fgr; 200 nM): 69%
inhibition at 1 µM (Fgr; 1000 nM): 92%
IC50 of Kinase/IC50 of Yes (Ret; Ret relative to Yes): 1.4
inhibition at 0.2 µM (Ret; Ret, 200 nM, average of 2 runs): 59%
inhibition at 1 µM (Ret; Ret, 1000 nM, average of 2 runs): 89%
IC50 (Ret; Ret, error is standard deviation): 128 nM
inhibition at 0.2 µM (Lyn; 200 nM): 58%
inhibition at 1 µM (Lyn; 1000 nM): 85%
IC50 of Kinase/IC50 of Yes (Src kinase; Src relative to Yes): 1.64
IC50 (Src kinase; Src, error is standard deviation): 151 nM
inhibition at 0.2 µM (pdgfr-b; 200 nM): 6%
inhibition at 1 µM (pdgfr-b; 1000 nM): 19%
IC50 of Kinase/IC50 of Yes (Abl; Abl relative to Yes): 2.65
inhibition at 0.2 µM (Abl; Abl, 200 nM, average of 2 runs): 37%
inhibition at 1 µM (Abl; Abl, 1000 nM, average of 2 runs): 78%
IC50 (Abl; Abl, error is standard deviation): 244 nM
inhibition at 0.2 µM (Fyn; 200 nM): 56%
inhibition at 1 µM (Fyn; 1000 nM): 84%
inhibition at 0.2 µM (Lck; 200 nM): 32%
inhibition at 1 µM (Lck; 1000 nM): 79%
inhibition at 0.2 µM (Blk; 200 nM): 38%
inhibition at 1 µM (Blk; 1000 nM): 74%
inhibition at 0.2 µM (BTK; 200 nM): 62%
inhibition at 1 µM (BTK; 1000 nM): 90%
inhibition at 0.2 µM (Hck; 200 nM): 59%
inhibition at 1 µM (Hck; 1000 nM): 80%
inhibition at 0.2 µM (CSK; 200 nM): 36%
inhibition at 1 µM (CSK; 1000 nM): 65%
inhibition at 0.2 µM (pdgfr-a; 200 nM): 11%
inhibition at 1 µM (pdgfr-a; 1000 nM): 34%
IC50 of Kinase/IC50 of Yes (Yes; Yes relative to Yes): 1
inhibition at 0.2 µM (Yes; Yes, 200 nM, average of 2 runs): 63%
inhibition at 1 µM (Yes; Yes, 1000 nM, average of 2 runs): 90%
IC50 (Yes; Yes, error is standard deviation): 92 nM
S(40%) ([1]; 200 nM): 0.44
S(40%) ([1]; 1000 nM): 0.72
relative selectivities favoring Yes (IC50 kinase/IC50 YES) over Ret, Src, and Abl ([1]; Ret, Src, Abl vs Yes): 1.4-2.65 fold
inhibition at 0.2 µM (Kit; 200 nM): 8%
inhibition at 1 µM (Kit; 1000 nM): 27%
inhibition at 0.2 µM (Her-2; 200 nM): 4%
inhibition at 1 µM (Her-2; 1000 nM): 16%
Compound: COc1cccc(-c2cn(C(C)(C)C)c3ncnc(N)c23)c1 [Compound 5, reference compound]
